Measured values taken from ChEMBL document CHEMBL4033656, “Organocatalyzed and mechanochemical solvent-free synthesis of novel and functionalized bis-biphenyl substituted thiazolidinones as potent tyrosinase inhibitors: SAR and molecular modeling studies” (Eur J Med Chem, 2017).

Target: Mushroom tyrosinase (Agaricus bisporus, UniProt O42713+Q00024+C7FF04+C7FF05)
Test: Inhibition of mushroom tyrosinase preincubated for 5 mins followed by addition of […] as substrate measured after 30 mins

SMILES	IC50
O=C1CSC(c2ccccc2O)N1c1ccc(-c2ccc(N3C(=O)CSC3c3ccccc3O)cc2)cc1 (stereo not drawn)	0.61 µM
COc1ccc(C2SCC(=O)N2c2ccc(-c3ccc(N4C(=O)CSC4c4ccc(OC)cc4)cc3)cc2)cc1 (stereo not drawn)	4.41 µM
Cc1cc(-c2ccc(N3C(=O)CSC3c3ccccc3)c(C)c2)ccc1N1C(=O)CSC1c1ccccc1 (stereo not drawn)	7.71 µM
COc1cc(C2SCC(=O)N2c2ccc(-c3ccc(N4C(=O)CSC4c4ccc(O)c(OC)c4)c(C)c3)cc2C)ccc1O (stereo not drawn)	2.81 µM
O=C1CSC(c2ccc(O)cc2)N1c1ccc(-c2ccc(N3C(=O)CSC3c3ccc(O)cc3)cc2)cc1 (stereo not drawn)	342.52 µM
O=C1CSC(c2ccccc2)N1c1ccc(-c2ccc(N3C(=O)CSC3c3ccccc3)cc2)cc1 (stereo not drawn)	21.61 µM
COc1cc(C2SCC(=O)N2c2ccc(-c3ccc(N4C(=O)CSC4c4ccc(O)c(OC)c4)cc3)cc2)ccc1O (stereo not drawn)	2.41 µM
Cc1cc(-c2ccc(N3C(=O)CSC3c3ccc(N(C)C)cc3)c(C)c2)ccc1N1C(=O)CSC1c1ccc(N(C)C)cc1 (stereo not drawn)	< 500 µM
